Experimental data as given in ChEMBL document CHEMBL1157185, “Design and synthesis of benzofuranic derivatives as new ligands at the melatonin-binding site MT3” (Bioorg Med Chem, 2008).

Legend:
[1] = Inhibition of MT3 melatonin binding site from hamster brain membrane; design: species or system Cricetinae
[2] = Selectivity ratio, IC50 for human MT1 melatonin receptor to IC50 for hamster MT3 melatonin binding site
[3] = molecular target: T1, Melatonin receptor type 1B (Homo sapiens, UniProt P49286); assay: Displacement of 2-[125I]iodomelatonin from human MT2 receptor expressed in HEK293 cells; format: cell-based
T1 sequence (P49286 whole entry): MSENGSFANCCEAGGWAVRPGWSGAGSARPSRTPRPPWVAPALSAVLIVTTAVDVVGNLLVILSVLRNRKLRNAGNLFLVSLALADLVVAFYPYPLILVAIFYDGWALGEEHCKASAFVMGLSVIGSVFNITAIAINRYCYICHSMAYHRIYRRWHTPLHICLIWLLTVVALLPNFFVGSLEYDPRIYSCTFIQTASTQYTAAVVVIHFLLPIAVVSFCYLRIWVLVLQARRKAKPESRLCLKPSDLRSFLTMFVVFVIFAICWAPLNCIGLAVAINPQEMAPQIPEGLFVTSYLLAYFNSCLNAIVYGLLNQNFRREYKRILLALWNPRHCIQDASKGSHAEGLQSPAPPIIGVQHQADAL

[4] = molecular target: Melatonin receptor type 1A (Homo sapiens, UniProt P48039); assay: Displacement of 2-[125I]iodomelatonin from human MT1 receptor expressed in HEK293 cells; format: cell-based
[5] = Selectivity ratio, IC50 for human MT2 melatonin receptor to IC50 for hamster MT3 melatonin binding site

Chain of Melatonin receptor type 1A (P48039 whole entry): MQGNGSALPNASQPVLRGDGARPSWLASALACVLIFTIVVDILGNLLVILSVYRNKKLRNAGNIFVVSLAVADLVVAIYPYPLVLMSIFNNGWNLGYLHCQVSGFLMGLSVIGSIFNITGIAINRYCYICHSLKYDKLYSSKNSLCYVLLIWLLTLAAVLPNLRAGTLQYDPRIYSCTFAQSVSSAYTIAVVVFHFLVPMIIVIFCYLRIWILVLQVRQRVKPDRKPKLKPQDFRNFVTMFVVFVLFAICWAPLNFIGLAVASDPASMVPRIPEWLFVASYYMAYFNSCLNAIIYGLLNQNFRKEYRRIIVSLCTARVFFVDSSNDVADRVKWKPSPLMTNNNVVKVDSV

SMILES | IC50 [1] | Ratio IC50 [2] | IC50 [3] | IC50 [4] | Ratio IC50 [5] | Ki [1]
CNC(=O)c1ccc2occ(CCNC(=O)C3CC3)c2c1 | 41 nM | > 29 | > 10000 nM | 1220 nM | > 244 | 
COC(=O)Nc1ccc2occ(CCNC(C)=O)c2c1 | 16 nM |  |  |  |  | 
COC(=O)c1ccc2occ(CCNC(C)=O)c2c1 | 14 nM |  |  |  |  | 
NC(=O)c1ccc2occ(CCNC(=O)c3ccco3)c2c1 | 67 nM | > 149 | > 10000 nM | > 10000 nM | > 149 | 
COC(=O)Nc1ccc2occ(CCNC(=O)C(C)C)c2c1 | 23 nM | 232 | 4580 nM | 5350 nM | 199 | 
COC(=O)c1ccc2occ(CCNC(=O)C(C)C)c2c1 | 65 nM |  |  |  |  | 
COc1cc2nc(N3CCN(C(=O)c4ccco4)CC3)nc(N)c2cc1OC [PRAZOSIN] | 7.8 nM |  |  |  |  | 
COc1ccc2c(c(CCNC(C)=O)c(I)n2C)c1[N+](=O)[O-] |  |  |  |  |  | 0.3 nM
COC(=O)Nc1ccc2occ(CCNC(=O)c3ccco3)c2c1 | 56 nM | > 178 | > 10000 nM | > 10000 nM | > 178 | 
COC(=O)c1ccc2occ(CCNC(=O)C3CCCC3)c2c1 | 18 nM | 215 | 389 nM | 3880 nM | 21.6 | 
COC(=O)Nc1ccc2occ(CCNC(=O)C3CC3)c2c1 | 24 nM | 340 | 5900 nM | 8180 nM | 245 | 
COc1cc2c(cc1OC)-c1c(c3cc(O)ccc3n1C)C2=O |  |  |  |  |  | 0.19 nM
CC(=O)NCCc1coc2ccc(C(N)=O)cc12 | 82 nM | > 122 | 1000 nM | > 10000 nM | 12 | 
C=CCC(=O)NCCc1coc2ccc(NC(=O)OC)cc12 | 11 nM | 244 | 560 nM | 2690 nM | 51 | 
CNC(=O)c1ccc2occ(CCNC(=O)C3CCCC3)c2c1 |  |  | > 10000 nM | > 10000 nM |  | 
COC(=O)Nc1ccc2[nH]cc(CCNC(C)=O)c2c1 |  |  | 4000 nM | 1000 nM |  | 
COc1ccc2occ(CCNC(C)=O)c2c1 | 64 nM |  |  |  |  | 
COC(=O)c1ccc2occ(CCNC(=O)c3ccco3)c2c1 | 53 nM | > 188 | > 10000 nM | > 10000 nM | > 188 | 
CNC(=O)c1ccc2occ(CCNC(C)=O)c2c1 | 12 nM | 16 | > 1000 nM | 189 nM | > 83 | 
CC(=O)NCCc1coc2ccc(NC(=O)C(F)(F)F)cc12 |  |  | 2000 nM | > 10000 nM |  | 
COC(=O)Nc1ccc2occ(CCNC(=O)C3CCCC3)c2c1 |  |  | 5320 nM | 5320 nM |  | 
